# Tests used:
# RICK = target: T1, RICK (Homo sapiens, UniProt O43353); assay: RICK-kinase assay (autophosphorylation of immunoprecipitated RICK-HA, radioactively labeled ATP); assay type: biochemical; conditions: in-vitro kinase assay, compound 100 nM to 50 μM, 30 min at 30° C.
# T1 construct: made in house; host or cells: HEK 293 (transient transfection, pcDNA3), immunoprecipitated with anti-HA antibody
# Description: (§1) To perform initial tests for compounds that inhibit RICK activity in a cellular assay, RICK was transiently overexpressed in HEK-293 cells, immunoprecipitated and incubated with different concentrations of test compounds before in-vitro kinase assays were performed (Example 10). According to the method for identifying compounds useful for inhibiting the cellular kinase RICK and therefore useful for treating and/or preventing Cytomegalovirus infection and/or diseases associated with Cytomegalovirus infection, a test compound is contacted with the cellular kinase RICK according to the RICK assay protocol disclosed in example 10. The test compound dissolved in DMSO is added to the RICK assay solution at concentrations between 100 nM and 50 μM. Thereafter, radioactively labeled ATP is added and kinase activity of RICK is determined by detecting the autophosphorylation of RICK via radioactivity measurement. The five compounds listed in the following Table 1 were identified using said method. […] The IC50 values of HCMV inhibition were obtained by the use of at least one assay protocol selected from a) virus replication assay, b) plaque assay, c) GFP (Green Fluorescent Protein) infection assay, and d) indirect immunofluorescence analysis as disclosed in example 12. Thus, the five compounds A to E mentioned below and/or pharmaceutically acceptable salts thereof can be used as inhibitors of the cellular protein kinase RICK and as pharmaceutically active compounds for the treatment and/or prophylaxis of HCMV infection. Furthermore, these compounds are suitable for the manufacture of a pharmaceutical composition for prophylaxis and/or treatment of Cytomegalovirus infection and/or diseases associated therewith.
# To obtain active RICK kinase the human RICK-cDNA was fused with a DNA sequence coding for the HA-tag and cloned into the eucaryotic expression vector pcDNA3 (Invitrogene). This construct was transfected into human embryonic kidney cells (HEK 293) via the calcium-phosphate co-precipitation method. One day after transfection medium was replaced by fetal calf serurum-free medium and two days after transfection cells were washed with PBS and harvested and lysed in RIPA-buffer (150 mM NaCl, 1 mM EDTA, 1% Tritron X-100, 1% Na-desoxycholate, 0.1% SDS, 10 mM Tris-HCl pH 7.5). The RICK-HA fusion protein was immunoprecipitated from 250 μl cleared lysate (i.e. lysate of one well of a six-well plate) utilizing an anti-HA antibody from Roche Pharmaceuticals and Protein A sepharose. After addition of 500 μl of HNTG-buffer (50 mM HEPES pH 7.5, 150 mM NaCl, 1 mM EDTA, 10% glycerine, 0.1% Triton X-100) the sample was rotated for 3 hrs at 4° C. After washing the immunoprecipitate twice with 0.5 ml HNTG-buffer and twice with 0.5 ml assay-buffer (25 mM Tris-HCl pH 7.5, 3 mM MgCl2, 0.5 mM MnCl2, 0.5 mM DTT and 50 mM NaCl), the kinase reaction was performed directly on the beads in 40 μl assay buffer containing 2.5 μCi γ[^33P]-ATP and various concentrations (between 100 nM and 50 μM) of compounds of Table 1. After 30 min at 30° C., the reaction was stopped by addition of 40 μl 3×Laemmli-buffer (16% glycerol, 1.01M β-mercaptoethanol, 5% SDS, 200 mM Tris/HCl pH 6.8, 8% bromphenolblue). Phosphorylation products were analyzed by SDS-PAGE and auroradiography (x-ray film and phosphor imager).
# HCMV = HCMV inhibition (virus replication assay, plaque assay, GFP infection assay or indirect immunofluorescence analysis); assay type: cell-based; conditions: Human betaherpesvirus 5, read-out: IC50 HCMV
# Description: as §1
# (§2) To perform initial tests for compounds that inhibit RIP activity in a cellular assay, RIP was transiently overexpressed in HEK-293 cells, immunoprecipitated and incubated with different concentrations of test compounds before in-vitro kinase assays were performed (Example 11). In order to identify compounds suitable for inhibiting the cellular kinase RIP and, thus, suitable for treating and/or preventing Cytomegalovirus infection and/or diseases associated with Cytomegalovirus infection the inventive method according to claim 1 was used. A test compound was contacted with the cellular kinase RIP according to the RIP assay protocoll disclosed in example 11. The test compound dissolved in DMSO is added to the RIP assay solution at concentrations between 100 nM and 50 μM. Radioactively labeled ATP was used as co-substrate of RIP and auto-phosphorylation was detected via measurement of incorporation of radioactivity into the RIP protein. Thereafter, phosphorylation rates with and without test compounds were compared. […] The IC50 values of HCMV inhibition were obtained by the use of at least one assay protocol selected from a) virus replication assay, b) plaque assay, c) GFP infection assay, and d) indirect immunofluorescence analysis as disclosed in example 12.
# Primary human foreskin fibroblasts (HFF) were cultivated in MEM containing 5% (v/v) fetal calf serum. Infection analysis was restricted to cell passage numbers below twenty. Human cytomegalovirus strain AD169 (ATCC) was grown in HFF cells and quantitated for infectivity by the plaque reduction assay. Aliquots were stored at −80° C.
# HFF cells were cultivated in 12-well plates to 90-100% confluency and used for infection with dilutions of virus-positive cell culture supernatants. Virus inoculation was performed for 90 min at 37° C. under occasional shaking before virus was removed and the cell layers were rinsed with PBS. Overlays of MEM 5% (v/v) fetal calf serum and 0.3% (w/v) agarose were added to each well and all samples were incubated at 37° C. in a 5% CO2 atmosphere for approximately 12 days. Finally, overlays were removed and the formation of foci was visualized by staining with 1% crystal violet in 20% ethanol for 1 min. […]
# RIP = target: T2, RIP (Homo sapiens, UniProt Q13546); assay: RIP-kinase assay (autophosphorylation of immunoprecipitated RIP-HA, radioactively labeled ATP); assay type: biochemical; conditions: in-vitro kinase assay, compound 100 nM to 50 μM, 30 min at 30° C.
# T2 construct: made in house; host or cells: HEK 293 (transient transfection, pcDNA3), immunoprecipitated with anti-HA antibody
# T2 sequence (Q13546 1-671 A438V): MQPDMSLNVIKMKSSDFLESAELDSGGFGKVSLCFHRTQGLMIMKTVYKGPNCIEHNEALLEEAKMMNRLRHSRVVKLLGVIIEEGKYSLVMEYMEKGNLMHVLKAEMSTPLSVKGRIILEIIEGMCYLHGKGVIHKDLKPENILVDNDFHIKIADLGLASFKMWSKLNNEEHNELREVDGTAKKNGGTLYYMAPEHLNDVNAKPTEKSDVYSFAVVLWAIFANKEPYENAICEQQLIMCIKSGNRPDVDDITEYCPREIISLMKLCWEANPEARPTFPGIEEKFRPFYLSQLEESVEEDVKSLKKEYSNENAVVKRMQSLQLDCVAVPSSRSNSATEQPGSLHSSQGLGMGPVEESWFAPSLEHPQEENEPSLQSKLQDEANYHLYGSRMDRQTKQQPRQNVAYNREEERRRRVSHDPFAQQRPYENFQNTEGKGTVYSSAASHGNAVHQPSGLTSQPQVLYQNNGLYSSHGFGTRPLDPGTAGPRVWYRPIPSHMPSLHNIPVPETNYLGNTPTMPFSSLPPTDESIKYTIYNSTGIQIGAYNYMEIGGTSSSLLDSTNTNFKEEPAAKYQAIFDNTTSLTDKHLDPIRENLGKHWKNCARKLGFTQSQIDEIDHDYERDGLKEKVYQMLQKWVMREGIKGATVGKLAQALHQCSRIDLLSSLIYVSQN
# Description: as §2
# To obtain active RIP kinase the human RIP-cDNA was fused with a DNA sequence coding for the HA-tag and cloned into the eucaryotic expression vector pcDNA3 (Invitrogene). This construct was transfected into human embryonic kidney cells (HEK 293) via the calcium-phosphate DNA co-precipitation method. Two days after transfection cells were washed with PBS and harvested and lysed in lysis-buffer (150 mM NaCl, 1 mM EDTA, 1% Tritron X-100, 20 mM Tris-HCl pH 7.5 and freshly added: 30 mM NaF, 10 μg/ml Aprotinine, 10 μg/ml Leupeptine, 2 mM Na-pyrophosphate). […] Phosphorylation products were analyzed by SDS-PAGE and autoradiography (x-ray film and phosphor imager).
# T1 sequence (O43353 whole entry): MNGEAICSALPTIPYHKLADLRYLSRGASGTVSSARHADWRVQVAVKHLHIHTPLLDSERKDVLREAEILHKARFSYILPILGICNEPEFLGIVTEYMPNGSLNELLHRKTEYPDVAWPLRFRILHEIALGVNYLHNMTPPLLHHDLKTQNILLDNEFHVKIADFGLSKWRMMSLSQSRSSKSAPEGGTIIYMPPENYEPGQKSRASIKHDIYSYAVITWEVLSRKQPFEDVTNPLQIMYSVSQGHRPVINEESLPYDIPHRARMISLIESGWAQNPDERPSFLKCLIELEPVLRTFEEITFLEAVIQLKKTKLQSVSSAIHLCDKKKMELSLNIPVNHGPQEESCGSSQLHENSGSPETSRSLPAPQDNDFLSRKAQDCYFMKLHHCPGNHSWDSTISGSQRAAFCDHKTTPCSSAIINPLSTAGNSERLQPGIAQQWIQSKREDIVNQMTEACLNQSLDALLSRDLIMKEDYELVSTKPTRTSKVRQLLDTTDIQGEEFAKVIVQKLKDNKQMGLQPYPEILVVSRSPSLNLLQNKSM
structure (smiles),measurement,setting,value
"Cn1c(=O)c(-c2c(Cl)cccc2Cl)cc2cnc(NCCCN3CCOCC3)nc21 [Compound A, 6-(2,6-Dichlorophenyl)-8-methyl-2-(3-morpholin-4-yl-propylamino)-8H-pyrido[2,3-d]pyrimidin-7-one]",IC50,RICK,1 µM
same,IC50,HCMV,6.8 µM
"Cn1c(=O)c(-c2ccccc2)cc2cnc(Nc3ccncc3)nc21 [Compound B, 8-methyl-6-phenyl-2-(pyridin-4-yl-amino)-8H-pyrido[2,3-d]pyrimidin-7-one]",IC50,RICK,0.5 µM
same,IC50,HCMV,1.4 µM
"CN1CCN(CCCNc2ncc3cc(-c4c(Cl)cccc4Cl)c(=O)n(C)c3n2)CC1 [Compound C, 6-(2,6-Dichlorophenyl)-8-methyl-2-[3-(4-methylpiperazin-1-yl)-propylamino]-8H-pyrido[2,3-d]pyrimidin-7-one]",IC50,RICK,1 µM
same,IC50,HCMV,6.2 µM
"CCOc1cc2ncnc(Nc3cccc(Br)c3)c2cc1OCC [Compound D, (3-Bromophenyl)-(6,7-diethoxyquinazolin-4-yl)-amine]",IC50,RICK,0.5 µM
same,IC50,HCMV,7.6 µM
"COc1cc2ncnc(Nc3cccc(Br)c3)c2cc1OC [Compound E, (3-Bromophenyl)-(6,7-dimethoxyquinazolin-4-yl)-amine]",IC50,RICK,0.5 µM
same,IC50,HCMV,5.7 µM
"O=c1c(O)c(-c2ccc(O)c(O)c2)oc2cc(O)cc(O)c12 [Compound F, 2-(3,4-Dihydroxyphenyl)-3,5,7-trihydroxychromen-4-one]",IC50,HCMV,15 µM
same,IC50,RIP,5 µM
"O=C1Nc2ccc(Cl)cc2/C1=C/c1ccc[nH]1 [Compound G, 5-Cloro-3-(1H-pyrrol-2-ylmethylene)-1,3-dihydroindol-2-one]",IC50,HCMV,15 µM
same,IC50,RIP,10 µM
"O=C1NC(=O)c2ccccc2/C1=C/c1ccnc2ccccc12 [Compound H, 4-Quinolin-4-ylmethylene-4H-isoquinoline-1,3-dione]",IC50,HCMV,12 µM
same,IC50,RIP,5 µM

# Reference: patent US6849409B2, “Cellular kinases involved in Cytomegalovirus infection and their inhibition” (Axxima Pharmaceuticals AG, priority 2000, dated 2005)
